In patent US9573913B2, “Cathepsin cysteine protease inhibitors” (Merck Sharp & Dohme Corp., priority 2013, dated 2017):

What was measured:
human cathepsin F = biological target: T1, human cathepsin F (Homo sapiens, UniProt Q9UBX1); test: Cathepsin F assay (hCat F); format: biochemical; conditions: Z-Phe-Arg-AMC substrate, pH 5.5, 15 min preincubation; read-out: hCat F (IP (nM))
T1 sequence (Q9UBX1 271-484): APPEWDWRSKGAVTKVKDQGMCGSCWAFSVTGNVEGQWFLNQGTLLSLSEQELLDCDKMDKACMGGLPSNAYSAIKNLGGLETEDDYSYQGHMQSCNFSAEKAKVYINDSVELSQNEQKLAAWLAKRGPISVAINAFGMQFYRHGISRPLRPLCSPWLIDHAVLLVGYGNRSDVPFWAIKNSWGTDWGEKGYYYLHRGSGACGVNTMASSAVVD
Method: Cathepsin F assay (hCat F)
(§1) Serial dilutions (1/3) from 500 μM down to 0.025 μM of test compounds were prepared in dimethyl sulfoxide (DMSO). Then 0.5 μL of DMSO from each dilution were added to 18.75 μL of assay buffer (MES, 50 mM (pH 5.5); EDTA, 2.5 mM; DTT, 2.5 mM and 10% DMSO) containing human cathepsin F (10 nM) in assay buffer solution. The assay solutions were mixed for 5-10 seconds on a shaker plate and incubated for 15 minutes at room temperature. Z-Phe-Arg-AMC (8 μM) in 6.25 μL of assay buffer was added to the assay solutions. Hydrolysis of the coumarin leaving group (AMC) was followed by spectrofluorometry (Exλ=360 nm; Emλ=460 nm) for 20 minutes. Percent of inhibition were calculated by fitting experimental values to standard mathematical model for dose response curve.

human cathepsin K = human cathepsin K (UniProt P43236); test: Cathepsin K Assay (hrbCat K); format: biochemical; conditions: Z-Leu-Arg-AMC substrate, pH 5.5, 15 min preincubation; read-out: hrbCat K (IP (nM))
Method: Cathepsin K Assay (hrbCat K)
as §1, with “Then” for “Serial dilutions (1/3) from 500 μM down to 0.025 μM of test compounds were prepared in dimethyl sulfoxide (DMSO). Then”, “K (0.4” for “F (10”, “Z-Leu-Arg-AMC” for “Z-Phe-Arg-AMC”, “30” for “20”

| IC50 (human cathepsin F) | IC50 (human cathepsin K) | SMILES |
| --- | --- | --- |
| 757 nM | 2.6 nM | C[C@@H](C#N)NC(=O)[C@@H]1CCCC[C@H]1c1nc(C(O)C(F)(F)F)sc1-c1ccc(N2CCS(=O)(=O)CC2)cc1 (mixture of isomers) [Example 229, (1R,2R)-N-((S)-1-cyanoethyl)-2-(5-(4-(1,1-dioxidothiomorpho-lino)phenyl)-2-((R and S)-2,2,2-trifluoro-1-hydroxyethyl)thia-zol-4-yl)cyclohexane-carboxamide] |
| 3280 nM | 5.4 nM | Cc1nc(C2CCCCC2C(=O)NCC#N)c(-c2ccc(N3CCS(=O)(=O)CC3)cc2)s1 (racemic) [Example 245, N-(cyanomethyl)-2-(5-(4-(1,1-dioxidothiomorpho-lino)phenyl)-2-methylthiazol-4-yl)cyclohexane-carboxamide] |
| > 10000 nM | 38.2 nM | Cc1nc(C2CCCCC2C(=O)NCC#N)c(-c2ccc(C(=O)N3CCOCC3)cc2)s1 (racemic) [Example 246, N-(cyanomethyl)-2-(2-methyl-5-(4-(morpholine-4-carbonyl)phenyl)thi-azol-4-yl)cyclohexane-carboxamide] |
| 229 nM | 2.1 nM | N#CCNC(=O)C1CCCCC1c1nc(-c2ccccc2)sc1-c1ccc(N2CCS(=O)(=O)CC2)cc1 (racemic) [Example 247, N-(cyanomethyl)-2-(5-(4-(1,1-dioxidothiomorpho-lino)phenyl)-2-phenylthiazol-4-yl)cyclohexane-carboxamide] |
| 225 nM | 0.7 nM | N#CC1(NC(=O)[C@@H]2CC3CC3C[C@H]2c2nc(-c3cncc(F)c3)sc2-c2ccc(N3CCS(=O)(=O)CC3)cc2)CC1 (single isomer, unassigned) [Compound 3, (1S or 1R,3R,4R,6R or 6S)-N-(1-Cyanocyclopropyl)-4-(5-(4-(1,1-dioxidothiomorpholino)phenyl)-2-(5-fluoropyridin-3-yl)thiazol-4-yl)bicyclo[4.1.0]heptane-3-carboxamide] |
| 439 nM | 0.9 nM | N#CC1(NC(=O)[C@@H]2CC3CC3C[C@H]2c2nc(-c3cncc(F)c3)sc2-c2ccc(N3CCS(=O)(=O)CC3)cc2)CC1 (single isomer, unassigned) [Compound 4, (1R or 1S,3R,4R,6S or 6R)-N-(1-Cyanocyclopropyl)-4-(5-(4-(1,1-dioxidothiomorpholino)phenyl)-2-(5-fluoropyridin-3-yl)thiazol-4-yl)bicyclo[4.1.0]heptane-3-carboxamide] |
| 632 nM | 1.7 nM | N#CC1(NC(=O)[C@@H]2CC3CC3C[C@H]2c2nc(-c3ccc(F)cn3)sc2-c2ccc(N3CCS(=O)(=O)CC3)cc2)CC1 (single isomer, unassigned) [Example 100, (1S or 1R,3R,4R,6R or 6S)-N-(1-cyanocyclopropyl)-4-(5-(4-(1,1-dioxidothiomorpho-lino)phenyl)-2-(5-fluoropyridin-2-yl)thiazol-4-yl)bicyclo[4.1.0] heptane-3-carboxamide] |
| 371 nM | 0.8 nM | N#CC1(NC(=O)[C@@H]2CC3CC3C[C@H]2c2nc(-c3ccc(F)cn3)sc2-c2ccc(N3CCS(=O)(=O)CC3)cc2)CC1 (single isomer, unassigned) [Example 105, (1R or 1S,3R,4R,6S or 6R)-N-(1-cyanocyclopropyl)-4-(5-(4-(1,1-dioxidothiomorpho-lino)phenyl)-2-(5-fluoropyridin-2-yl)thiazol-4-yl)bicyclo[4.1.0] heptane-3-carboxamide] |
| 258 nM | 0.6 nM | N#CC1(NC(=O)[C@@H]2CC3CC3C[C@H]2c2nc(-c3cncc(Cl)c3)sc2-c2ccc(N3CCS(=O)(=O)CC3)cc2)CC1 (single isomer, unassigned) [Example 109, (1S or R,3R,4R,6R or S)-4-(2-(5-chloropyridin-3-yl)-5-(4-(1,1-dioxidothiomorpho-lino)phenyl)thiazol-4-yl)-N-(1-cyanocyclopropyl) bicyclo[4.1.0]heptane-3-carboxamide] |
